One experiment has as its system HIV-1YU2. To be noted: read-out: IC50 (HIV-1YU2); viral infectivity, HIV-1YU2 strain; cited from earlier work.
The target of a further experiment is core monomeric gp120. To be noted: binding affinity on gp120 core monomer; cited from earlier work.
Another experiment deals with BG505 SOSIP.664. In words: Competition ELISA, BG505 SOSIP.664 binding to CD4IgG2. The arrangement: species or system HIV-1. To be noted: full dose response not achieved owing to solubility limits. For orientation: ELISA stands for enzyme-linked immunosorbent assay.

On to `CC1(C)CC(NC(=O)C(=O)Nc2ccc(Cl)cc2)CC(C)(C)N1` [compound 1], for which the IC50 (as a rule, the midpoint of a concentration-inhibition curve) with HIV-1YU2 is above 100000 nM. Further, the Kd (as a rule, the constant that tells how readily two partners part at equilibrium) on core monomeric gp120 is 3700 nM. Besides, in the experiment on BG505 SOSIP.664, the “inhibition of SOSIP trimer protein binding to sCD4 (in words)” value is given as “weaker inhibition”.
Turning to `CN(Cc1ccc2c(c1)C[C@H](CN=C(N)N)[C@H]2NC(=O)C(=O)Nc1ccc(Cl)c(F)c1)C(=N)N` [compound 5], in the experiment on HIV-1YU2, the IC50 was 800 ± 100 nM. Further, the Kd on core monomeric gp120 was 100 nM.

The values above are taken from paper PMC5206489 (Journal of chemical information and modeling, 2016).
